Test results from article PMC10386886, “First-in-class multifunctional TYMS nonclassical antifolate inhibitor with potent in vivo activity that prolongs survival” (JCI Insight, 2023).

Assays:
[1] = tested on: PANC-1 cells; assay: MTS viability assay, PANC-1; type: cell-based; details: Homo sapiens, 72-hour drug incubation, Figure 1C
[2] = tested on: MIA PaCa-2 cells; assay: MTS viability assay, MIA PaCa-2; type: cell-based; details: Homo sapiens, 72-hour drug incubation, Figure 1C
Protocol: (§1) Cells were harvested after 72 hours, and cell pellets were stored at –80°C. […] After 72 hours, cell viability was assessed by reduction of MTS using Cell Titer 96 R Aqueous One Solution Cell Proliferation Assay Kit (Promega, catalog G8081), following manufacturer’s recommendations. […] was measured on a SpectraMax M3 (Molecular Devices). Data were plotted in GraphPad Prism 9 to determine GI50 concentration. Chemical synthesis details, including characterization of each compound, can be found in the Supplemental section associated with this publication.

[3] = tested on: CM cells; assay: MTS viability assay, CM; type: cell-based; details: 72-hour drug incubation, Figure 1C
[4] = tested on: BON cells; assay: MTS viability assay, BON; type: cell-based; details: 72-hour drug incubation, Figure 1C
[5] = tested on: H1048 small cell lung cancer cell line; assay: Viability assay, H1048; type: cell-based; details: Homo sapiens, NCI-H1048; Supplemental Figure 1B
Protocol: H1048, Colo320, H630 and CCD18Co cells were purchased from ATCC. Cells were grown in RPMI
1640 supplemented with 5 U/ml Penicillin/Streptomycin and 10% fetal bovine serum at a constant
temperature of 37 °C in a humidified atmosphere of 5% carbon dioxide and were routinely tested for
mycoplasma contamination.
For GI50 determination, 3000 Colo320, H630 and CCD18Co cells per well were plated in 96 well plates
hours, cell viability was assessed by reduction of MTT (3-(4,5- dimethylthiazol-2-yl)-2,5-diphenyltetrazolium bromide) using MTT Reagent (Invitrogen, Cat # M6494), following manufacturer’s
recommendations. Chemiluminescent output (integration time 1000 ms) was measured on a
SpectraMax M3 (Molecular Devices). Data was plotted in GraphPad Prism 9 to determine GI50

[6] = tested on: TYMS; assay: Immunoblot of TYMS levels in treated PANC-1 cells; type: cell-based; details: PANC-1, 72 hours, Figure 1D
Protocol: as §1
A total of 20 μg of total protein lysate was loaded per lane of 10% Tris Glycine Gel (Invitrogen, catalog EC6076). SDS-PAGE was run at 150 V for 1.5 to 2 hours. Proteins were transferred to nitrocellulose membranes using iBlot (Invitrogen, catalog IB3011002). Membranes were blocked with 5% nonfat dry milk (Lab Scientific, catalog M0841) in Tris-buffered saline supplemented with Tween 20 (0.1%) (TBS-T) for 45–60 minutes at room temperature (RT). […] Signal was detected using West Pico Plus chemiluminescence substrate (Thermo Fisher Scientific, catalog 34580) following manufacturer’s recommendations. […] For protein-level quantification relative to loading control, densitometric analysis was performed by ImageJ software (NIH).

[7] = tested on: PANC-1 and MIA PaCa-2 cells; assay: Cell count assay for acquired resistance; type: cell-based; details: constant 10 μM
Protocol: 500000 PANC-1 and MiaPaCa- 2 cells were plated in 75 cm2 flasks in DMEM high glucose
supplemented with 5 U/ml Penicillin/Streptomycin and 10% fetal bovine serum. Cells were treated with
Once a week for 7 weeks, cells were trypsinized with Trypsin-
EDTA 0.05% (Gibco) and counted using Cellometer Auto T4 (Nexcelom Bioscience). 500000 cells were
re-seeded in a new 75 cm2 flask in the appropriate treatment. Data was plotted in GraphPad Prism 9.

[8] = tested on: 5-FU-resistant PANC-1 cells; assay: Clonability assay in 5-FU-resistant PANC-1 cells; type: cell-based; details: 8.35 μM 19-S or 6.5 μM 5-FU, 21 days
Protocol: 500 PANC- 1 cells resistant to 6.5 µM 5-FU cells were seeded in 6 well plates by triplicate in media
After 21 days, cells were washed with PBS, fixed with Methanol for 20 minutes and stained with
1% Crystal violet (in PBS) for 20 minutes. After extensive washing, plates were let dry and colonies
were counted and plotted in GraphPad Prism 9. Images were taken using scanner Epson Perfection

[9] = tested on: Luc-PANC-1 xenograft tumors; assay: Luc-PANC-1 subcutaneous xenograft tumor model; type: in vivo; details: 19-S vs 5-FU comparison, Supplemental Figure 6
Excerpt: (§2) In the subcutaneous tumor model, the resulting Luc-PANC-1 xenograft tumors were monitored by direct tumor measurements and bioluminescence photon flux that is proportional to tumor size. […] Treatment was initiated 30 days after Luc-PANC-1 cell line subcutaneous injections (5 × 10^6 cells), when tumors reached 100 mm^3 in volume, generating a bioluminescence photon flux of 3 × 10^9 to 4 × 10^9 photons/s. […] Tumors from both treatment groups were excised, and the tumor mass was weighed (Figure 2E).
Luc-PANC-1 (5 × 10^6) and Luc-CM (0.5 × 10^6) cells were resuspended in 200 μL of PBS and injected subcutaneously or IP, respectively, into 6- to 8-week-old NSG mice. Tumor-bearing mice were imaged using Xenogen IVIS Lumina Bioluminescence Imaging System (PerkinElmer) every week after cell injection. […] For all animals, body weight was recorded weekly, and Luc-PANC-1 tumor volume was measured weekly with a caliper. For scheduled sacrifice experiments, animals were euthanized after 4 weeks of treatment. […] Tumor volume was calculated as volume = 0.52(length × width^2).
Prior to bioluminescence imaging the region where tumors were located was shaved. […] Following the injection of the D-luciferin substrate mice, were imaged using the Xenogen IVIS Lumina Bioluminescence Imaging System (PerkinElmer). The peak of luciferase photon flux was recorded 6 minutes after injection of the D-luciferin substrate. The total photon flux was analyzed and restricted to tumor region of interest using Living Image v2.60.1 software (Imaging Systems).

[10] = tested on: TYMS; assay: TYMS levels in Luc-PANC-1 xenograft tumors (immunoblot); type: in vivo, mouse; details: 25 mg/kg daily IP, 5 consecutive days
Excerpt: as §2
A small piece of frozen tumor (stored at -80 °C) in RIPA buffer with phosphatase and proteinase inhibitors (Santa Cruz, sc-24948) was homogenized using Omni general laboratory homogenizer (GLH). Tumor was then centrifuged for 20 min at 12000 rpm and 4 °C to obtain whole -cell lysates that was transferred to a new tube. Protein concentration was measured using Bradford Assay and 20 µg of total protein lysate was loaded as described in Methods.
Tritium based TYMS catalytic activity assay
The catalytic activity of TYMS was determined by measuring the release of [3H] from [5-3H]dUMP (ViTrax, Cat # VT122) resulting from the conversion of dUMP to dTMP as previously described (2, 3).
The reaction conditions were optimized to determine the amount of TYMS protein needed to establish […]

[11] = in vivo; details: NSG, mouse, ip
Protocol: Maximum tolerated dose (MTD)
(§3) experiment) or 5, 10, 25 or 50 mg/kg of 5-FU daily during 5 consecutive days. After 3 treatment cycles,
(§4) animals rested (no treatment) for one more week before euthanasia. Body weight and physical status
(§5) of all mice were closely monitored. Tissues were collected and fixed in alcoholic formalin to test for
(§6) daily during 5 consecutive days for 3 weeks. After 3 treatment cycles, animals rested (no treatment) for
(§7) one more week before euthanasia. Body weight and physical status of all mice were closely monitored.
(§8) Tissues were collected and fixed in alcoholic formalin to test for toxicity.
(§9) Specimens were fixed in alcoholic formalin for 48h and then transferred to 70% ethanol, processed and
(§10) embedded in paraffin. Tissues were serially sectioned and stained by conventional H&E. Slides were

[12] = in vivo; details: FVB/129/Sv, mouse, ip
Protocol: Animals received 4 treatment cycles and were then monitored once off treatment until survival endpoint.
Maximum tolerated dose (MTD)
as §3, §4, §5, §6, §7, §8, §9, §10

O=c1[nH]cc(F)c(=O)[nH]1 [Compound 5-FU, 5-fluorouracil]
GI50 [1]: 15.7 µM
GI50 [2]: 20.4 µM
GI50 [3]: 14.8 µM
GI50 [4]: 7.47 µM
IC50 [4]: 7.1 µM
GI50 [5]: 3.63 µM
TYMS protein expression after treatment [6]: 3 fold
Effect on cell counts after 1 week [7]: potent cytotoxic effect
Viable cells after 4 weeks of treatment [7]: remained detectible
Colony formation [8]: colonies were observed
Tumor volume compared with control mice [9]: significant reduction in tumor volume
TYMS protein level in tumors [10]: higher than TYMS protein level in vehicle-treated controls
MTD at 3 treatment cycles (5 consecutive days of daily dosing each) [11]: 25 mg/kg
MTD at 3 treatment cycles (5 consecutive days of daily dosing each) [12]: 25 mg/kg
